US6562789B2, “Histidine derivatives, preparation process, and their use as free antiradical agents” (L'Oreal S.A., priority 1996, dated 2003)

Legend:
[1] = anti-singlet-oxygen activity: deactivation of singlet oxygen, luminescence at 1270 nm, Stern-Volmer type analysis; format: physicochemical; conditions: for (kr + kq), sum of the rate constants for the chemical reaction and for the physical inhibition of singlet oxygen: singlet oxygen generated by irradiating Ru(bipy)3Cl at 437 nm in deuterated methanol, luminescence at 1270 nm
Description: The anti-singlet-oxygen activity of the compound of Example 1 was compared with that of N-octanoyl-β-alanyl-L-histidine (referred to as compound A) of the prior art, according to the following principle, which is also described in Pure & Appl. Chem., vol. 62, No. 8, 1467-1476 (1990).
In all the experiments, singlet oxygen was generated by irradiating at 437 nm Ru(bipy)3Cl (tris(2,2′-bipyridyl)ruthenium chloride hexahydrate) dissolved in deuterated methanol.
The sum of the physical inhibition constants (kq) and chemical reaction constants (kr) of singlet oxygen with the test compounds was determined.
The results for the deactivation of singlet oxygen can be analysed by measuring the luminescence (infrared emission) of singlet oxygen at 1270 nm, and by monitoring the kinetics of disappearance of oxygen.
The exploitation of the results is based on the Stern-Volmer type analysis principle: the signal obtained is measured in the absence (So) and in the presence (S) of the test compound, at various concentrations in the solution. The ratio So/S makes it possible to determine the value of (kr+kq) according to the following relationship:
[P] denotes the concentration of test compound in the solution, φo denotes the quantic yield of the emission in the absence of compound, φ denotes the quantic yield of the emission in the presence of compound, τo denotes the lifetime of singlet oxygen in deuterated methanol (270 μs), kr+kq denotes the sum of the rate constants for the chemical reaction and for the physical inhibition of singlet oxygen.

| melting point [°C] | Structure (SMILES) | (kr + kq), sum of the rate constants for the chemical reaction and for the physical inhibition of singlet oxygen [1] | anti-singlet-oxygen activity compared with compound A of the prior art ([1]; comparison of (kr+kq) in deuterated methanol) |
| --- | --- | --- | --- |
|  | CCCCCCCC(=O)NCCC(=O)N[C@@H](Cc1c[nH]cn1)C(=O)O [Compound A, N-octanoyl-β-alanyl-L-histidine, reference compound] | 7.4 × 10^5 ± 0.4 1.mol^−1.s^−1 |  |
| 188 to 190 | CCCCCCCCOC(=O)NCCC(=O)N[C@@H](Cc1c[nH]cn1)C(=O)O [Example 1, N-octyloxycarbonyl-β-alanyl-L-histidine] | 8.8 × 10^6 ± 0.3 1.mol^−1.s^−1 | significantly higher anti-singlet-oxygen activity |
| 168 to 172 | CCCCCCCCCCCCOC(=O)NCCC(=O)N[C@@H](Cc1c[nH]cn1)C(=O)O [Example 2, N-dodecyloxycarbonyl-β-alanyl-L-histidine] |  |  |
